Results taken from PubChem BioAssay (NCI).
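A five-concentration, 48-hour dose response in 96-well plates underlies each endpoint, interpolated linearly between surrounding concentrations. At the GI50, growth is halved. TGI denotes the concentration required for complete inhibition of growth.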

How the values were obtained:
Assay in all cases: growth of human tumour cells (NCI), 48 h
SR leukemia = tested on: SR leukemia
HT29 colon = tested on: HT29 colon
TK-10 renal = tested on: TK-10 renal
NCI-H226 lung = tested on: NCI-H226 lung
CAKI-1 renal = tested on: CAKI-1 renal
MALME-3M melanoma = tested on: MALME-3M melanoma
OVCAR-8 ovarian = tested on: OVCAR-8 ovarian
MDA-MB-231 breast = tested on: MDA-MB-231 breast
SK-MEL-2 melanoma = tested on: SK-MEL-2 melanoma
KM12 colon = tested on: KM12 colon
DU-145 prostate = tested on: DU-145 prostate
UACC-62 melanoma = tested on: UACC-62 melanoma
HCT-15 colon = tested on: HCT-15 colon
T-47D breast = tested on: T-47D breast
PC-3 prostate = tested on: PC-3 prostate
A498 renal = tested on: A498 renal
HS 578T breast = tested on: HS 578T breast
SF-268 CNS = tested on: SF-268 CNS
U251 CNS = tested on: U251 CNS
SF-295 CNS = tested on: SF-295 CNS
786-0 renal = tested on: 786-0 renal
UACC-257 melanoma = tested on: UACC-257 melanoma
MDA-MB-435 = tested on: MDA-MB-435
K-562 leukemia = tested on: K-562 leukemia
A549 NSCLC = tested on: A549 NSCLC
LOX IMVI melanoma = tested on: LOX IMVI melanoma
SNB-75 CNS = tested on: SNB-75 CNS
UO-31 renal = tested on: UO-31 renal
HOP-92 NSCLC = tested on: HOP-92 NSCLC
BT-549 breast = tested on: BT-549 breast
OVCAR-5 ovarian = tested on: OVCAR-5 ovarian
SN12C renal = tested on: SN12C renal
SK-MEL-5 melanoma = tested on: SK-MEL-5 melanoma
NCI-H522 lung = tested on: NCI-H522 lung
NCI-H460 lung = tested on: NCI-H460 lung
M14 melanoma = tested on: M14 melanoma
NCI/ADR-RES ovarian = tested on: NCI/ADR-RES ovarian
HCC-2998 colon = tested on: HCC-2998 colon
SNB-19 CNS = tested on: SNB-19 CNS
NCI-H23 lung = tested on: NCI-H23 lung
RPMI-8226 leukemia = tested on: RPMI-8226 leukemia
ACHN renal = tested on: ACHN renal
HCT-116 colon = tested on: HCT-116 colon
COLO 205 colon = tested on: COLO 205 colon
OVCAR-3 ovarian = tested on: OVCAR-3 ovarian
SF-539 CNS = tested on: SF-539 CNS
MCF7 breast = tested on: MCF7 breast
OVCAR-4 ovarian = tested on: OVCAR-4 ovarian
CCRF-CEM leukemia = tested on: CCRF-CEM leukemia
IGROV1 ovarian = tested on: IGROV1 ovarian
SK-MEL-28 melanoma = tested on: SK-MEL-28 melanoma
MOLT-4 leukemia = tested on: MOLT-4 leukemia
HOP-62 NSCLC = tested on: HOP-62 NSCLC
SK-OV-3 ovarian = tested on: SK-OV-3 ovarian
SW-620 colon = tested on: SW-620 colon
HL-60(TB) leukemia = tested on: HL-60(TB) leukemia
RXF 393 renal = tested on: RXF 393 renal
EKVX NSCLC = tested on: EKVX NSCLC

C/C(=N/NC(N)=S)c1ccc(Nc2nc(SCC(C)C)nc(-c3ccc(F)cc3)c2C#N)cc1
GI50 (SR leukemia): 0.509 µM | TGI (SR leukemia): 18.9 µM | GI50 (HT29 colon): 1.28 µM | TGI (HT29 colon): 15.6 µM | GI50 (TK-10 renal): 3.56 µM | TGI (TK-10 renal): 18.9 µM | GI50 (NCI-H226 lung): 1.46 µM | TGI (NCI-H226 lung): 14.1 µM | GI50 (CAKI-1 renal): 1.65 µM | TGI (CAKI-1 renal): 7.49 µM | GI50 (MALME-3M melanoma): 1.88 µM | TGI (MALME-3M melanoma): 11.6 µM | GI50 (OVCAR-8 ovarian): 3.22 µM | TGI (OVCAR-8 ovarian): 26.4 µM | GI50 (MDA-MB-231 breast): 5.91 µM | TGI (MDA-MB-231 breast): 25.9 µM | GI50 (SK-MEL-2 melanoma): 5.09 µM | TGI (SK-MEL-2 melanoma): 19 µM | GI50 (KM12 colon): 12.7 µM | TGI (KM12 colon): > 100 µM | GI50 (DU-145 prostate): 1.55 µM | TGI (DU-145 prostate): 20.3 µM | GI50 (UACC-62 melanoma): 1.66 µM | TGI (UACC-62 melanoma): 10.5 µM | GI50 (HCT-15 colon): 0.928 µM | TGI (HCT-15 colon): > 100 µM | GI50 (T-47D breast): 2.11 µM | TGI (T-47D breast): 29.8 µM | GI50 (PC-3 prostate): 0.59 µM | TGI (PC-3 prostate): 5.52 µM | GI50 (A498 renal): 2.99 µM | TGI (A498 renal): 8.8 µM | GI50 (HS 578T breast): 3.08 µM | TGI (HS 578T breast): 54.1 µM | GI50 (SF-268 CNS): 10.9 µM | TGI (SF-268 CNS): 33.1 µM | GI50 (U251 CNS): 0.77 µM | TGI (U251 CNS): 11 µM | GI50 (SF-295 CNS): 0.598 µM | TGI (SF-295 CNS): 2.69 µM | GI50 (786-0 renal): 2.07 µM | TGI (786-0 renal): 13.8 µM | GI50 (UACC-257 melanoma): 4.56 µM | TGI (UACC-257 melanoma): 30.1 µM | GI50 (MDA-MB-435): 2.14 µM | TGI (MDA-MB-435): 17.4 µM | GI50 (K-562 leukemia): 1.41 µM | TGI (K-562 leukemia): > 100 µM | GI50 (A549 NSCLC): 0.488 µM | TGI (A549 NSCLC): 10.9 µM | GI50 (LOX IMVI melanoma): 1.13 µM | TGI (LOX IMVI melanoma): 10.4 µM | GI50 (SNB-75 CNS): 0.418 µM | TGI (SNB-75 CNS): 3.95 µM | GI50 (UO-31 renal): 2.75 µM | TGI (UO-31 renal): 15.4 µM | GI50 (HOP-92 NSCLC): 1.12 µM | TGI (HOP-92 NSCLC): 5.01 µM | GI50 (BT-549 breast): 4.04 µM | TGI (BT-549 breast): 18.4 µM | GI50 (OVCAR-5 ovarian): 6.94 µM | TGI (OVCAR-5 ovarian): 47.5 µM | GI50 (SN12C renal): 0.717 µM | TGI (SN12C renal): 14.1 µM | GI50 (SK-MEL-5 melanoma): 2.74 µM | TGI (SK-MEL-5 melanoma): 15.6 µM | GI50 (NCI-H522 lung): 2.59 µM | TGI (NCI-H522 lung): 13.1 µM | GI50 (NCI-H460 lung): 0.414 µM | TGI (NCI-H460 lung): 10.3 µM | GI50 (M14 melanoma): 4.41 µM | TGI (M14 melanoma): 26 µM | GI50 (NCI/ADR-RES ovarian): 1.89 µM | TGI (NCI/ADR-RES ovarian): 19.1 µM | GI50 (HCC-2998 colon): 5.69 µM | TGI (HCC-2998 colon): 31.4 µM | GI50 (SNB-19 CNS): 9.08 µM | TGI (SNB-19 CNS): 22.4 µM | GI50 (NCI-H23 lung): 1.72 µM | TGI (NCI-H23 lung): 12 µM | GI50 (RPMI-8226 leukemia): 3.26 µM | TGI (RPMI-8226 leukemia): 80.3 µM | GI50 (ACHN renal): 0.423 µM | TGI (ACHN renal): 11.4 µM | GI50 (HCT-116 colon): 0.539 µM | TGI (HCT-116 colon): 13.6 µM | GI50 (COLO 205 colon): 1.18 µM | TGI (COLO 205 colon): 22.1 µM | GI50 (OVCAR-3 ovarian): 0.685 µM | TGI (OVCAR-3 ovarian): 4.95 µM | GI50 (SF-539 CNS): 2.01 µM | TGI (SF-539 CNS): 10.4 µM | GI50 (MCF7 breast): 0.696 µM | TGI (MCF7 breast): 28.8 µM | GI50 (OVCAR-4 ovarian): 0.329 µM | TGI (OVCAR-4 ovarian): 2.23 µM | GI50 (CCRF-CEM leukemia): 5.83 µM | TGI (CCRF-CEM leukemia): > 100 µM | GI50 (IGROV1 ovarian): 4.82 µM | TGI (IGROV1 ovarian): 21.4 µM | GI50 (SK-MEL-28 melanoma): 2.76 µM | TGI (SK-MEL-28 melanoma): 13.4 µM | GI50 (MOLT-4 leukemia): 2.07 µM | TGI (MOLT-4 leukemia): 79.2 µM | GI50 (HOP-62 NSCLC): 3.04 µM | TGI (HOP-62 NSCLC): 13.6 µM | GI50 (SK-OV-3 ovarian): 3.1 µM | TGI (SK-OV-3 ovarian): 13.7 µM | GI50 (SW-620 colon): 0.62 µM | TGI (SW-620 colon): > 100 µM | GI50 (HL-60(TB) leukemia): 17.9 µM | TGI (HL-60(TB) leukemia): > 100 µM | GI50 (RXF 393 renal): 1.95 µM | TGI (RXF 393 renal): 7.16 µM | GI50 (EKVX NSCLC): 4.53 µM | TGI (EKVX NSCLC): 25.4 µM
